Measurements as given in patent publication US20260053767A1, “Hepatoprotective Compositions And Methods” (Jemyll, Ltd., priority 2022, published 2026).
Entries after “also recorded” stand apart in the source; their conditions may differ.

Columns and labels:
PGC-1α = PGC-1α protein levels in liver cells (marker for mitochondrial biogenesis); assay type: cell-based; details: AML-12 liver cells
Text: (§1) To that end, the inventors used endothelial cells (EOMA cells) and liver cells (AML-12 cells) in vitro and quantified various markers in response to exposure of the cells to environmental challenge in the presence and absence of DDA at low concentrations. Unless indicated otherwise, the DDA concentration in the in vitro experiments was 5 mcg per microliter. More specifically, the inventors measured p-H2AX protein levels as a marker for DNA damage, PGC-1α protein levels as a marker for mitochondrial biogenesis, NAMPT enzyme levels as a marker for potential for NAD+ production, and total antioxidant capacity as a marker of cellular health. In addition, the inventors also measured global SIRT activity as a gauge of activity for all SIRT enzymes, and in particular SIRT1 enzyme levels as markers for autophagy and various beneficial processes associated with a caloric restricted diet, and SIRT3 levels as markers for mitochondrial function and longevity.
The inventors also evaluated activity of DDA on energy metabolism, and particularly on mitochondrial health and/or mitochondrial biogenesis. The protein followed was PGC-1α, a known marker for mitochondrial biogenesis, and exemplary results are depicted in FIG. 7. […] Such finding is not entirely unexpected as PGC-1α is a transcriptional co-activator and as such tightly regulated.

[1] = test system: human primary hepatocytes; assay: Nile red staining of lipid droplets; assay type: cell-based; details: C12 1% with palmitic acid 0.4 mM, vs palmitic acid alone, listed as C12
Description: Nile Red: Cells were cultured for 24 hours in DMEM with 10% FBS. Prior stimulation, cells were incubated in serum free DMEM overnight. […] After the stimulation, cells were stained with Nile Red (100 ng/ml) for 45 minutes. Stained cells were used for immunofluorescence to quantify the deposition of lipid droplets. Nuclear staining was performed with DAPI and images of lipid droplets were taken using confocal microscope Nikon A1 RHD25 and NIS-Elements imaging software was used to analyze images.
C12 decrease de novo lipogenesis and an increase in fatty acid oxidation in vitro and in vivo: To test the hypothesis that C12 could affect de novo lipogenesis and fatty acid beta-oxidation, human primary hepatocytes were stimulated with palmitic acids (0.4 mM) in the presence or absence of C12 1% (v/w). […] Similar results were also observed in our in vivo experiments. […] Data from in vivo study 1 and 2 were pooled together.

[2] = test system: liver cells (AML-12 cells); assay: DNA damage (p-H2AX protein levels) in liver cells; assay type: cell-based; details: AML-12 liver cells, 6 hours; p=0.068
Text: as §1
Finally, the inventors also investigated whether or not DDDA could have a protective effect against peroxide induced DNA damage, and exemplary results are shown in FIG. 11. […] N=5-6 plates per treatment.

Wistar rats = assay: Study 2 (reversal): liver histology (H&E, Oil Red O, Sirius Red); assay type: in vivo; details: Study 2: 9 weeks diet, then 4 weeks treatment
Description: Study design: All animal procedures were approved by the Catholic University of Rome Institutional Animal Care Committee. The design of the studies is summarized in FIG. 18, Panels A and B. • Study 1: Twenty adult Wistar rats, aged 8-10 weeks, were included in the study. The rats were housed in individual cages at 22° C. with 12-h light cycles and had ad libitum access to food and water. Rats were fed a high-fat high-cholesterol diet (44% Carbohydrate, 14% Protein, 42% fat+0.2% Cholesterol) (Mucedola, Milan, IT) for four weeks in the presence or absence of 1% Dodecanedioic acid, sodium salt (w/vol) dissolved in the water (FIG. 18, Panel A). Body weight and food/water intake were monitored weekly. • Study 2: Twenty adult Wistar rats, aged 8-10 weeks, were included in the study. The rats were housed in individual cages at 22° C. with 12-h light cycles and had ad libitum access to food and water. Rats were fed a high-fat high-cholesterol diet (44% Carbohydrate, 14% Protein, 42% fat+0.2% Cholesterol) (Mucedola, Milan, IT). After nine weeks of diet, rats were randomly assigned to one of the following groups: Four weeks of high-fat high-cholesterol diet or four weeks of high-fat high-cholesterol diet and 1% Dodecanedioic acid, sodium salt (w/v) dissolved in the water FIG. 18, Panel B). Body weight and food/water intake were monitored weekly.
Histology: The day of the sacrifice fresh portions of liver were cut, embedded in cryo-embedding media (OCT) and snap frozen in liquid nitrogen. Biopsies were cut using a cryostat (5 μm) and slides stored a −20° C. until analyses.
Hematoxylin and Eosin staining was performed to assess hepatic steatosis. Slides were fixed 10 minutes with 95% ethanol, stained with hematoxylin for 1 minute, washed with distilled water, stained with eosin for 30 seconds and cleared in two changes of pure ethanol and two changes of xylene.
Oil Red O was performed to assess intracellular lipid accumulation. Slides were fixed overnight with 4% formalin, stained with Oil Red O solution for 1 hour. Counterstain was performed with Hematoxylin solution.
Sirius Red was used to identify hepatic fibrosis. Slides were fixed 10 minutes with 4% formalin, stained in Direct red 80 for 1 hour, washed in acidified water and dehydrate in 3 changes of absolute ethanol. After brief clearing in xylene, the slides were mounted in a resinous medium. Images were taken with an optical microscope (Leica DM2000, Wetzlar, DE). […]
Panels A and B. • Study 1: Twenty adult Wistar rats, aged 8-10 weeks, were included in the study. […] Body weight and food/water intake were monitored weekly. • Study 2: Twenty adult Wistar rats, aged 8-10 weeks, were included in the study. […] Body weight and food/water intake were monitored weekly. […]

NAMPT = NAMPT enzyme levels in endothelial cells; assay type: cell-based; details: EOMA endothelial cells, 6 hours; p=0.018
Text: as §1
In yet a further series of experiments, the inventors also sought to confirm whether or not DDDA would have a modulatory effect in endothelial cells using the same markers and experimental conditions as noted above.
On the other hand, where endothelial cells were exposed to DDDA, there was a significant difference in NAMPT enzyme levels as is exemplarily depicted in FIG. 15.

SMILES: O=C(O)CCCCCCCCCCC(=O)O [DDDA, dodecanedioic acid]
- PGC-1α levels (PGC-1α; 6 hours, p=0.001): increased PGC1α levels
- PGC-1α levels (PGC-1α; 24 hours, pattern relative to 6 hours): paradoxically reversed
- deposition of lipid droplets (Nile red) [1]: decreased deposition of lipid droplets; also recorded: reduces lipid droplets accumulation
- peroxide induced DNA damage [2]: trend towards decreased DNA damage
- diet-induced NASH (histology, reversal) (Wistar rats): reverses diet-induced insulin NASH
- fibrosis (Picro Sirius Red) (Wistar rats): decreasing
- hepatic steatosis (Hematoxylin and Eosin) (Wistar rats): decreasing
- neutral lipids (Oil Red O) (Wistar rats): decreasing
- NAMPT enzyme levels (NAMPT): increased NAMPT enzyme levels
